Results on one molecule are retold here after patent publication US20080085338A1, “Pet Food” (priority 2005, published 2008).

Assay [1] relates to bacteria taken from the feline oral cavity. Put plainly: in vitro antibacterial activity. Format: cell-based. The procedure:
Periodontopathic conditions are the most common disease in dogs and cats. Especially in cats, prophylaxis is usually limited to professional dental cleaning under anaesthesia. Special diets which reduce plaque and calculus accumulation have been formulated to extend the period of time between professional dental cleanings. The study was conducted to determine the effect of EGCG in a regular dry diet on the oral health of cats. In addition, the in vitro antibacterial activity of the substance and its effect on the antioxidant status of cats were evaluated. […] With a view to achieving better in vivo results, a change in the dosage, and possibly also a change in the mode of administration, can be considered. Further, the active ingredient can be administered in higher concentration, or in such a way as to prolong the time of its contact with the oral cavity. […] This was investigated as a secondary target variable.

Assay [2] can be described thus: 28-day feeding study in cats, antioxidant status. Format: in vivo. The settings on record: dry cat food with 227 mg/kg of EGCG, 28 days, compared with control group. The procedure: Periodontopathic conditions are the most common disease in dogs and cats. Especially in cats, prophylaxis is usually limited to professional dental cleaning under anaesthesia. Special diets which reduce plaque and calculus accumulation have been formulated to extend the period of time between professional dental cleanings. The study was conducted to determine the effect of EGCG in a regular dry diet on the oral health of cats. In addition, the in vitro antibacterial activity of the substance and its effect on the antioxidant status of cats were evaluated. The substance under investigation was sprayed on a standard dry cat food. The supplemented diet contained 227 mg/kg of EGCG. 18 cats were made available for the feeding study, being assigned either to a control group or a study group, each group containing 9 cats. At the beginning of the trial, which was conducted over a period of 28 days, the oral health status of the cats was examined using various indices and tests, and samples from the oral cavity were obtained for bacteriological analysis. In addition, blood samples were taken to determine the antioxidant status of the animal. The examinations were followed by a coronal cleaning (scaling and polishing) to ensure that the study period began with no plaque or calculus present on tooth surfaces (“clean tooth” model). […]

`O=C(O[C@@H]1Cc2c(O)cc(O)cc2O[C@@H]1c1cc(O)c(O)c(O)c1)c1cc(O)c(O)c(O)c1` [Epigallocatechingallate]: the “inhibition of growth of bacteria taken from the feline oral cavity” value in assay [1] is reported as “able to inhibit the growth bacteria taken from the feline oral cavity in vitro”. In addition, in assay [2], the “effect on the antioxidant status of the cats” value is given as “positive effect on the antioxidant status of the cat”.
